# Biological target: T1, human EP4 receptor (Homo sapiens, UniProt P35408)
# T1 construct: expressed in transfected cells; host or cells: CHO cells infected with recombinant Semliki Forest Virus (SFV-1) particles; membranes prepared
# Assay: Human EP4 Scintillation Proximity Assay (radioligand binding)
# Conditions: not given
# Experimental: Quantification of radioligand binding by scintillation proximity assay (SPA) is a long-established principle. Briefly, the affinity of novel compounds for a receptor is assessed by the specific competition between known quantities of radiolabelled ligand and novel compound for that receptor. Increasing concentrations of novel compound reduce the amount of radiolabel that binds to the receptor. This gives rise to a diminishing scintillation signal from SPA beads coated with membranes that bear the receptor. The signal may be detected with a suitable scintillation counter and the data generated may be analysed with suitable curve-fitting software.
# The human EP4 SPA assay (hereafter referred to as ‘the assay’) utilises membranes prepared from Chinese Hamster Ovary (CHO cells) infected with Semliki Forest Virus (SFV). Genetically engineered SFV-1 viral particles containing the genetic sequence of the human EP4 receptor were used to infect CHO cells resulting in expression of the receptor protein in cellular membranes. Cells washed free of media are homogenised in a pH-buffered medium containing peptidase inhibitors. A suitable buffer is of the following composition: 50 mM HEPES, 1 mM EDTA, 25 μg/ml bacitracin, 100 μM leupeptin, 1 mM PMSF, 2 μM Pepstatin A, pH adjusted to 7.4 with KOH. Following removal of cell debris by a low-speed centrifugation, a pellet of membranes is prepared by a high-speed (48000 g) centrifugation of the resulting supernatant. Membrane suspensions such as that described may be stored at −80° C. until used.
# For assay, membranes expressing human EP4 receptors are diluted in a pH-buffered medium and mixed with SPA beads coated with a suitable substance to facilitate the adhesion of membranes to the beads. The concentrations of membrane protein and SPA beads chosen should result in SPA binding signal of at least 300 corrected counts per minute (CCPM) when tritiated radioligand at a concentration close to its Kd (affinity value) is combined with the mixture. Non-specific binding (nsb) may be determined by competition between the radiolabelled ligand and a saturating concentration of unlabelled ligand. In order to quantify the affinity of novel EP4 receptor ligands, compounds are diluted in a stepwise manner across the wells of a 96-well plate. Radioligand, novel compound, and unlabelled ligand are then added to a 96-well plate suitable for the measurement of SPA binding signals prior to the addition of bead/membrane mixture to initiate the binding reaction. Equilibrium may be achieved by incubation at room temperature for 120 minutes prior to scintillation counting. The data so generated may be analysed by means of a computerised curve-fitting routine in order to quantify the concentration of compound that displaces 50% of the specific radioligand binding (IC50). The affinity (pKi) of the novel compound may be calculated from the IC50 by application of the Cheng-Prusoff correction. Suitable reagents and protocols are: reaction buffer containing 50 mM HEPES, 10 mM MgCl2, pH adjusted to 7.4 with KOH; SPA beads coated with wheatgerm agglutinin; 1.25 nM [^3H]-prostaglandin E2 as radioligand; 10 μM prostaglandin E2 as unlabelled ligand; a three-fold dilution series of novel compound starting at 10 μM and ending at 0.3 nM is adequate.
# T1 sequence (P35408 whole entry): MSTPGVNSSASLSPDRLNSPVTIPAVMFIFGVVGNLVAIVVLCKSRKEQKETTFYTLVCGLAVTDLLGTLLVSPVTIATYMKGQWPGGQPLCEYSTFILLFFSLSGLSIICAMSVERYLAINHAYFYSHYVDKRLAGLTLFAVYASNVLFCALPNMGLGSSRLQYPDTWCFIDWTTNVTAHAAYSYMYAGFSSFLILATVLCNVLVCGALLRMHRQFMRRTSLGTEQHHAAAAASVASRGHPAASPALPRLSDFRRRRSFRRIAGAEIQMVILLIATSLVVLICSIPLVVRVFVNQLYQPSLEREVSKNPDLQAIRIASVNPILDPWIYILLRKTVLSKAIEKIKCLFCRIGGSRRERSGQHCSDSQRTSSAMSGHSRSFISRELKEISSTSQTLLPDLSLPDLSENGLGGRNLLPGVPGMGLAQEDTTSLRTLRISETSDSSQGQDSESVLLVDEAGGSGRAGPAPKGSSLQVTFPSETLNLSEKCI
row,SMILES,Ki [µM]
1,"CC(C)Oc1c2c(c(OC(C)C)c3ccccc13)C(=O)N(c1ccc(CC(=O)O)cc1)C2 [Example 4, [4-(4,9-Di-isopropoxy-1-oxo-1,3-dihydro-2H-benzo[f]isoindol-2-yl)phenyl]acetic acid]",≤ 1
2,"CCOc1c2c(c(OCC)c3ccccc13)C(=O)N(c1ccc(CC(=O)O)cc1)C2=O [Example 12, [4-(4,9-Diethoxy-1,3-dioxo-1,3-dihydro-2H-benzo[f]isoindol-2-yl)phenyl]acetic acid]",≤ 1
3,"CCCOc1c2c(c(OCCC)c3ccccc13)C(=O)N(c1ccc(CC(=O)O)cc1)C2 [Example 5, [4-(4,9-Dipropoxy-1-oxo-1,3-dihydro-2H-benzo[f]isoindol-2-yl)phenyl]acetic acid]",≤ 1

# Same assay, conditions: SPA, membranes of CHO cells expressing human EP4 receptor, 1.25 nM [3H]-prostaglandin E2 as radioligand; pKi from IC50 by Cheng-Prusoff correction; read-out: pKi at EP4 receptors (converted)
row,SMILES,Ki [µM]
1,"CC(C)Oc1c2c(c(OC(C)C)c3ccccc13)C(=O)N(c1ccc(CC(=O)O)cc1)C2=O [Example 13, [4-(4,9-Di-isopropoxy-1,3-dioxo-1,3-dihydro-2H-benzo[f]isoindol-2-yl)phenyl]acetic acid]",≤ 1
2,"CCOc1c2c(c(OC(C)C)c3ccccc13)C(=O)N(c1ccc(CC(=O)O)cc1)C2=O [Example 17, [4-(4-Ethoxy-9-isopropoxy-1,3-dioxo-1,3-dihydro-2H-benzo[f]isoindol-2-yl)phenyl]acetic acid]",≤ 1
3,"COc1c2c(c(OC)c3ccccc13)C(=O)N(c1ccc(CC(=O)O)cc1)C2 [Example 1, [4-(4,9-Dimethoxy-1-oxo-1,3-dihydro-2H-benzo[f]isoindol-2-yl)phenyl]acetic acid]",≤ 1
4,"CCCOc1c2c(c(OCCC)c3ccccc13)C(=O)N(c1ccc(CC(=O)O)cc1)C2=O [Example 14, [4-(4,9-Dipropoxy-1,3-dioxo-1,3-dihydro-2H-benzo[f]isoindol-2-yl)phenyl]acetic acid]",≤ 1

# Reference: US7732622B2, “Naphthalene derivatives” (Glaxo Group Limited, priority 2001, dated 2010)
